From paper PMC9323955, “Synthesis and Evaluation of Small Molecule Drug Conjugates Harnessing Thioester-Linked Maytansinoids” (Pharmaceutics, 2022)

Tests used:
[1] = system: HCC1806 triple-negative breast cancer cells; assay: MTS cell viability assay (72 h); format: cell-based, human; settings: Homo sapiens, HCC1806; 72 h incubation, MTS; read-out: IC50, cytotoxicity against HCC1806 cells
Experimental: HCC1806 cells were grown in RPMI 1640 medium, and MTS assays were performed to check cell viability. Cells (2500–3000 cells/well) were grown in flat-bottomed 96-well plates for 24 h, and then serial dilutions of the compound were added, and cells were allowed to incubate for a further 72 h. At the end of the 72-h incubation period, the medium was removed, and 100 μL of a solution including a mixture of MTS and PMS was added. The cells were incubated for 1.5 h at 37 °C in a humidified incubator with 5% CO2 to allow viable cells to convert tetrazolium salts to formazan. Conversion to formazan was measured by absorbance (490 nm) using a BioTek PowerWave-X absorbance microplate meter. The data collected were normalized using a DMSO-treated control (100% viability) and a background control (0% viability) to verify growth inhibition.

[2] = PS SPR binding assay (Biacore T200, L1 chip); settings: DOPC/DOPS (3:1, v/v) liposomes on L1 chip, 25 °C
Experimental: Phospholipids, 1,2-dioleoyl-sn-glycero-3-phosphocholine (DOPC) and 1,2-dioleoyl-sn-glycero-3-[phosphate-L-serine] (DOPS) were obtained as chloroform solutions from Avanti Polar Lipids (Alabaster, AL, USA). These stock solutions were mixed in the specified proportions. A 0.4 mL aliquot of the lipid solution at a 10 mg/mL concentration was added to a round bottom flask and evaporated under a stream of N2 to provide a thin lipid film. The lipid films were rehydrated in PBS buffer for at least 1 h at room temperature. The resulting suspension was extruded through a 100 nm polycarbonate filter using an Avanti MiniExtruder according to the manufacturer’s instructions. Zeta potential (ZP) and liposome size distribution were recorded by dynamic light scattering (DLS) and microelectrophoresis using a Zetasizer Nano ZS instrument. The binding kinetics between conjugates and liposomes were recorded at 25 °C using a Biacore T200 biosensor equipped with an L1 sensor chip (GE Healthcare, Chicago, IL, USA). The new sensor chip was pretreated with running buffer (5% DMSO in phosphate buffered saline (PBS) at a pH of 7.4) and two consecutive 30 s pulses of 2:3 v/v 50 mM HCl/isopropanol at a flow rate of 30 μL/min. New liposome capture plates were prepared for each binding cycle. In PBS buffer, liposomes are diluted to 0.5–1 mM and captured to saturation in isolated flow cells at 2–5 μL/min (30–150 s). […]

[3] = system: HCC1806 human triple-negative breast cancer tumors; assay: HCC1806 xenograft tumor efficacy; format: in vivo, female nude mice; settings: 0.3 mg/kg i.v. twice weekly for 2 weeks
Experimental: Cancer cells suspended in RPMI 1640 medium (11835-030, Thermo Fisher Scientific, Waltham, MA, USA) were mixed with Matrigel™ (356237, BD Biosciences, Franklin Lakes, NJ, USA) in a 1:1 ratio. Human triple-negative breast cancer HCC1806 (1 × 10^6 cells) cells were inoculated subcutaneously into the left flank of 6-week-old female nude mice (BioLASCO Taiwan, Taipei, Taiwan) using a 1 mL syringe with a 24G needle (AN-2425R, Terumo Medical Corp., Tokyo, Japan). Tumor dimensions were measured twice weekly using electronic calipers (FOW54-200-777, PRO-MAX), and the volume of tumor grown subcutaneously (mm^3) was calculated by the formula Volume = (length × width^2)/2. A combination of 10% DMA/20% Cremophor EL/70% 5% dextrose injection (D5W) was formulated to treat HCC1806 xenograft tumors. Mice with HCC1806 tumors were grouped and administered the indicated dosing regimen of 1 mg/kg for the conjugate and 0.3 mg/kg for the cytotoxic payloads DM1 and DM4 twice-weekly (day 1 and day 4) for 2 weeks when the mean tumor volume was approximately 200–250 mm^3 or 850–900 mm^3 (large tumors). The conjugate dose of 2 mg/kg was administered weekly for the large tumor study. The body weight and tumor volume of mice were measured twice weekly. In addition, a previously reported oncogene-induced, sorafenib-resistant HCC mouse model was used in the current study to examine the antitumor activities of synthesized compounds. Briefly, plasmids including transposase (pCMV(CAT)T7-SB100), human Akt1, and luciferase (pKT2/CLP-AKT-2A-OVA-HBc-HBs-LUC) and the N-Ras V12 mutant (pT/Caggs-NRASV12) were hydrodynamically injected (HDI) and the liver was monitored for the appearance of HCC. HCC mice with a total flux of more than 1 × 10^9 photons/s from IVIS imaging were used as treatment conjugates. The indicated conjugate was administered intravenously at 1 mg/kg 3 times per week over 2 weeks. IVIS imaging was repeatedly performed to follow tumor progression, and tumor tissue from treated HCC mice was collected for histological examination and RNA extraction after administration.

[4] = Plasma stability, 24 h incubation with plasma (HPLC); format: in vitro ADME
Experimental: Zn8_DM1: 0H VS. 24H in plasma.
Zn10_DM4: 0H VS. 24H in plasma.
Supporting Figure S1. Incubation of Linker-drug 3 and 4, conjugates Zn8_DM1 and
Zn10_DM4, DM1 and DM4 with plasma for 24 hrs. HPLC condition is listed below. […]

Compound	IC50 [1]	association with PS-coated liposomes (SPR) [2]	anti-HCC1806 tumor growth activity of free payload [3]	cleavage of the maytansinoid after incubation with plasma [4]
COc1cc2cc(c1Cl)N(C)C(=O)C[C@H](OC(=O)[C@H](C)N(C)C(=O)CCS)[C@]1(C)O[C@H]1[C@H](C)[C@@H]1C[C@@](O)(NC(=O)O1)[C@H](OC)/C=C/C=C(\C)C2 [DM1, (14S,16S,32R,33S,2R,4S,10E,12E,14R)-86-chloro-14-hydroxy-85,14-dimethoxy-33,2,7,10-tetramethyl-12,6-dioxo-7-aza-1(6,4)-oxazinana-3(2,3)-oxirana-8(1,3)-benzenacyclotetradecaphane-10,12-dien-4-yl N-(3-mercaptopropanoyl)-N-methyl-D-alaninate, reference compound]	21 nM	did not show association properties		
COc1cc2cc(c1Cl)N(C)C(=O)CC(OC(=O)C(C)N(C)C(=O)CCC(C)(C)S)C1(C)OC1C(C)C1CC(O)(NC(=O)O1)C(OC)C=CC=C(C)C2 [DM4, (14R,16R,33R,2S,4S,10E,12Z,14S)-86-chloro-14-hydroxy-85,14-dimethoxy-33,2,7,10-tetramethyl-12,6-dioxo-7-aza-1(6,4)-oxazinana-3(2,3)-oxirana-8(1,3)-benzenacyclotetradecaphane-10,12-dien-4-yl N-(4-mercapto-4-methylpentanoyl)-N-methyl-D-alaninate, reference compound]	7 nM		marginal improvement in its antitumor activity	
COc1cc2cc(c1Cl)N(C)C(=O)C[C@H](OC(=O)[C@H](C)N(C)C(=O)CCSC(=O)c1ccc(CN(CCOCCOCCNC(=O)OC(C)(C)C)C(=O)C3(c4ccc(Cl)cc4)CCCCC3)cc1)[C@]1(C)O[C@H]1[C@H](C)[C@@H]1C[C@@](O)(NC(=O)O1)[C@H](OC)/C=C/C=C(\C)C2 [compound 3, (14R,16R,33R,2S,4S,10E,12Z,14S)-86-Chloro-14-hydroxy-85,14-dimethoxy-33,2,7,10-tetramethyl-12,6-dioxo-7-aza-1(6,4)-oxazinana-3(2,3)-oxirana-8(1,3)-benzenacyclotetradecaphane-10,12-dien-4-yl N-(3-((4-(2-(1-(4-chlorophenyl)cyclohexane-1-carbonyl)-14,14-dimethyl-12-oxo-5,8,13-trioxa-2,11-diazapentadecyl)benzoyl)thio)propanoyl)-N-methyl-L-alaninate]				No cleavage
COc1cc2cc(c1Cl)N(C)C(=O)CC(OC(=O)C(C)N(C)C(=O)CCC(C)(C)SC(=O)c1ccc(CN(CCOCCOCCNC(=O)OC(C)(C)C)C(=O)C3(c4ccc(Cl)cc4)CCCCC3)cc1)C1(C)OC1C(C)C1CC(O)(NC(=O)O1)C(OC)C=CC=C(C)C2 [compound 4, (14R,16R,33R,2S,4S,10E,12Z,14S)-86-Chloro-14-hydroxy-85,14-dimethoxy-33,2,7,10-tetramethyl-12,6-dioxo-7-aza-1(6,4)-oxazinana-3(2,3)-oxirana-8(1,3)-benzenacyclotetradecaphane-10,12-dien-4-yl N-(4-((4-(2-(1-(4-chlorophenyl)cyclohexane-1-carbonyl)-14,14-dimethyl-12-oxo-5,8,13-trioxa-2,11-diazapentadecyl)benzoyl)thio)-4-methylpentanoyl)-N-methyl-D-alaninate]				No cleavage
